Results: paper PMC8304462, “Isolation, Structural Characterization and Antidiabetic Activity of New Diketopiperazine Alkaloids from Mangrove Endophytic Fungus Aspergillus sp. 16-5c” (Marine Drugs, 2021)

Legend:
PTP1B = molecular target: T1, PTP1B (Homo sapiens, UniProt P18031); assay: PTP1B inhibitory activity (p-NPP hydrolysis); type: biochemical; settings: screening concentration 100 μg/mL
T1 sequence (P18031 1-435): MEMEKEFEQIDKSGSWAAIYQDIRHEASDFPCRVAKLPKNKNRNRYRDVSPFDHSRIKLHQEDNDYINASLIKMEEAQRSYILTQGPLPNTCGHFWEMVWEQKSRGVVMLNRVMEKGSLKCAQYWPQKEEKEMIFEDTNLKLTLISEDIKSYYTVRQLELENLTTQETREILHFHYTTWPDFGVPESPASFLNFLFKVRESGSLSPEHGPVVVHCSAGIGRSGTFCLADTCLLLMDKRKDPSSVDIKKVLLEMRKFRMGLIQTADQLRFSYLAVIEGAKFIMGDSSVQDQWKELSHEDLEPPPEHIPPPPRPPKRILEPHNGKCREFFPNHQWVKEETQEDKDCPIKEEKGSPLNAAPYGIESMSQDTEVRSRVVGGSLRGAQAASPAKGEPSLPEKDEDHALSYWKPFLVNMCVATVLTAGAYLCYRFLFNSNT
Experimental: PTP1B inhibitory activity was determined by measuring the enzymatic hydrolysis rate of p-nitrophenyl phosphate (p-NPP) as reported in the study. This assay was performed at 37 °C with a final volume of 100 μL, using a Tris-HCl buffer (25 mM Tris-HCl, 1 mM EDTA, 1 mM DTT, pH 7.5). […] After 30 min, the reaction ended by adding 50 μL 2.5 M NaOH solution.

α-glucosidase = α-glucosidase inhibition assay (p-NPG, 96-well microplate); type: biochemical; settings: 37 °C, pH 6.86, substrate p-NPG
Experimental: The α-glucosidase inhibition assay was performed in a 96-well microplate reader method as described in a previous report. The α-glucosidase assay was performed at 37 °C with a final volume of 200 μL. […] 20 μL substrate p-nitrophenyl-α-D-glucopyranoside (p-NPG) was added to each well to start the reaction. The reaction was incubated at 37 °C for 15 min and stopped by the addition of 50 μL 0.4 M Na2CO3.

SMILES	PTP1B (Inhibition Ratio/%) (PTP1B)	IC50 (α-glucosidase)
C=CC(C)(C)c1[nH]c2ccccc2c1C=C1NC(=O)C(CCCO)NC1=O (centres unmarked) [Compound 1, aspergiamide A]	29%	18.2 µM
C=CC(C)(C)c1[nH]c2ccccc2c1C=C1NC(=O)C(CCC(=O)O)NC1=O (centres unmarked) [Compound 2, aspergiamide B]	<10%	131 µM
C=CC(C)(C)c1[nH]c2ccccc2c1C=C1NC(=O)C2CC(O)CN2C1=O (centres unmarked) [Compound 3, aspergiamide C]	<10%	83.9 µM
C=CC(C)(C)c1[nH]c2ccccc2c1C(O)C1NC(=O)C2CCCN2C1=O (centres unmarked) [Compound 4, aspergiamide D]	<10%	144 µM
C=CC(C)(C)c1[nH]c2ccccc2c1C(OC)C1NC(=O)C2CCCN2C1=O (centres unmarked) [Compound 5, aspergiamide E]	<10%	1090 µM
O=C1NC(O)c2nc3ccccc3c(=O)n2C1Cc1ccc(O)cc1 (centres unmarked) [Compound 6, aspergiamide F]	<10%	267 µM
C=CC(C)(C)c1[nH]c2ccccc2c1/C=C1\NC(=O)C2(O)CCCN2C1=O (centres unmarked) [Compound 7, brevianamide Q]	<10%	198 µM
C=CC(C)(C)c1[nH]c2ccccc2c1/C=C1\NC(=O)C2(OC)CCCN2C1=O (centres unmarked) [Compound 8, brevianamide R]	<10%	364 µM
C=CC(C)(C)c1[nH]c2ccccc2c1/C=c1\[nH]c(=O)c2n(c1=O)CCC=2 [Compound 9, brevianamide K]	<10%	7.6 µM
C=CC(C)(C)c1[nH]c2ccccc2c1/C=C1\NC(=O)C2CCCN2C1=O (centres unmarked) [Compound 10, brevianamide W]	<10%	40.7 µM
CC(C)=CCn1cc(CC2NC(=O)C3CCCN3C2=O)c2ccccc21 [Compound 11, N-Prenyl-cyclo-L-tryptophyl-L-proline]	<10%	37.5 µM
O=C1N[C@@H](Cc2c[nH]c3ccccc23)C(=O)N2CCC[C@@H]12 [Compound 12, brevianamide F]	<10%	1090 µM
C=CC(C)(C)c1[nH]c2ccccc2c1CC1NC(=O)C2CCCN2C1=O (stereo not drawn) [Compound 13, epi-deoxybrevianamide E]	<10%	480 µM
O=C1N[C@@H](Cc2c[nH]c3ccccc23)C(=O)N[C@H]1Cc1ccccc1 [Compound 14, cyclo-(tryptophyl-phenylalanyl)]	<10%	353 µM
O=C1N[C@@H](O)c2nc3ccccc3c(=O)n2[C@H]1Cc1ccccc1 [Compound 15, brevianamide M]	<10%	67.8 µM
O=C1NC(=O)[C@H](Cc2ccccc2)n2c1nc1ccccc1c2=O [Compound 16, brevianamide N]	<10%	363 µM
